This data set can be described thus: Glyburide particle size by laser light scattering / laser diffraction. The note with it: drug substance, laser diffraction particle size analysis. Type of data set: physicochemical. The procedure: Data from studies with metformin hydrochloride/glyburide tablets formulated with glyburide of different particle size characteristics allowed for the development of a correlation between glyburide particle size and the in vivo performance. The desired particle size distribution may be obtained by sieving or, preferably, air jet milling, and was measured by a laser light scattering method. The particle size measurement method of laser light scattering uses drug substance dispersed in liquid paraffin for introduction into the measurement cell. The apparatus produces a volume based, cumulative size distribution. […] The mill was operated with a Venturi nitrogen pressure of approximately 1.5 atmospheres and a micronization chamber pressure of 4 atmospheres. Size reduction was not allowed to proceed to the extent normally employed to make glyburide that would be described as micronized. The mill was turned off and the drug substance was discharged from it. A sample of the size-reduced glyburide was evaluated by a laser diffraction particle size analysis method.

`COc1ccc(Cl)cc1C(=O)NCCc1ccc(S(=O)(=O)NC(=O)NC2CCCCC2)cc1` [commercially available micronized sample] displayed a D25% of 2.8 microns, a D50% of 4.5 microns and a D75% of 7.3 microns.

In the case of `COc1ccc(Cl)cc1C(=O)NCCc1ccc(S(=O)(=O)NC(=O)NC2CCCCC2)cc1` [Example 1, 5-chloro-N-[2-[4-[[[(cyclohexylamino)-carbonyl]amino]sulfonyl]phenyl]ethyl]-2-methoxybenzamide], the D25% came to 5 microns, the D50% is 9 microns and the D75% is on record as 21 microns.
